This is an account of results in patent US8871753B2, “Macrocyclic compounds and their use as kinase inhibitors” (Incyte Corporation, priority 2008, dated 2014).

Structures are written as SMILES. Structures can show the parent of a compound that is named as a salt.

What all share (format): biochemical
The target in assay [1] is T1, human JAK1 (a.a. 837-1142) (Homo sapiens, UniProt P23458).
T1 construct: human JAK1 (a.a. 837-1142); His tag (N); made in house; host or cells: insect cells (baculovirus)
The assay can be described thus: In vitro JAK kinase assay (HTRF, phosphorylation of a biotinylated peptide), JAK1. The following applies: read-out: JAK1 IC50. The procedure, abridged:
(§1)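 Phosphorylation of a biotinylated peptide by the JAK kinase domain, detected by HTRF with Eu-Py20 and SA-APC. ATP was 90 μM for JAK1, 30 μM for JAK2 and 3 μM for JAK3. Reactions ran 1 h at room temperature and were stopped with EDTA, followed by 40 min antibody binding.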

Assay [2] has as its target T2, human JAK3 (a.a. 781-1124) (Homo sapiens, UniProt P52333).
T2 construct: JAK3 (a.a. 781-1124); His tag (N); made in house; host or cells: insect cells (baculovirus)
The experiment in a line: In vitro JAK kinase assay (HTRF, phosphorylation of a biotinylated peptide), JAK3. As to the method: The catalytic activity of JAK1, JAK2 or JAK3 was assayed by measuring the phosphorylation of a biotinylated peptide. The phosphorylated peptide was detected by homogenous time resolved fluorescence (HTRF). […] The ATP concentration in the reactions was 90 μM for JAK1, 30 μM for JAK2 and 3 μM for JAK3. Reactions were carried out at room temperature for 1 hr and then stopped with 20 μL 45 mM EDTA, 300 nM SA-APC, 6 nM Eu-Py20 in assay buffer (Perkin Elmer, Boston, Mass.). Binding to the Europium labeled antibody took place for 40 minutes and HTRF signal was measured on a Fusion plate reader (Perkin Elmer, Boston, Mass.).
The catalytic activity of JAK1, JAK2 or JAK3 was assayed by measuring the phosphorylation of a biotinylated peptide. The phosphorylated peptide was detected by homogenous time resolved fluorescence (HTRF). […] Reactions were carried out at room temperature for 1 hr and then stopped with 20 μL 45 mM EDTA, 300 nM SA-APC, 6 nM Eu-Py20 in assay buffer (Perkin Elmer, Boston, Mass.). Binding to the Europium labeled antibody took place for 40 minutes and HTRF signal was measured on a Fusion plate reader (Perkin Elmer, Boston, Mass.).
For orientation: TR-FRET usually uses a lanthanide donor and a delayed reading to cut background.

The next assay deals with TYK2 (Homo sapiens, UniProt P29597). The assay can be described thus: TYK2 kinase inhibition (Table A1).
The target in assay [3] is T3, human JAK2 (a.a. 828-1132) (Homo sapiens, UniProt O60674).
T3 construct: JAK2 (a.a. 828-1132); His tag (N); made in house; host or cells: insect cells (baculovirus)
The experiment in a line: In vitro JAK kinase assay (HTRF, phosphorylation of a biotinylated peptide), JAK2. Put shortly:
as §1

T2 sequence (P52333 781-1124): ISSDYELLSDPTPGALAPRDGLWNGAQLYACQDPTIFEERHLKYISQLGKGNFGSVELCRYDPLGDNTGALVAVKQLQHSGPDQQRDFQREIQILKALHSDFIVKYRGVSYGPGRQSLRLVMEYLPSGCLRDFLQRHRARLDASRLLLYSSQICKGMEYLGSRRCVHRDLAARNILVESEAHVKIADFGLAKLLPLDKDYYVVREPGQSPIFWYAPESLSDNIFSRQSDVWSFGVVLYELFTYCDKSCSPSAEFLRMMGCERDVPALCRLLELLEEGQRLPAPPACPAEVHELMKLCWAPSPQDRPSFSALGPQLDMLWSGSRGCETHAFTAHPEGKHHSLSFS
T3 sequence (O60674 828-1132): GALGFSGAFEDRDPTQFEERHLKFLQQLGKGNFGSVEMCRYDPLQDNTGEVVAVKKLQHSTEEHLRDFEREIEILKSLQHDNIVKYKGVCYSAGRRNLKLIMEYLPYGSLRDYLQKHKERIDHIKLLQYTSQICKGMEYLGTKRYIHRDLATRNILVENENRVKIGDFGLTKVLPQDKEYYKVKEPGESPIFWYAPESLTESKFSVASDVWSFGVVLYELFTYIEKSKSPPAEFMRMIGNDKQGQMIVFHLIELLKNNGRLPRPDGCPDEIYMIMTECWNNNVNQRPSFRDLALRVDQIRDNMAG
Sequence of TYK2 (P29597 whole entry): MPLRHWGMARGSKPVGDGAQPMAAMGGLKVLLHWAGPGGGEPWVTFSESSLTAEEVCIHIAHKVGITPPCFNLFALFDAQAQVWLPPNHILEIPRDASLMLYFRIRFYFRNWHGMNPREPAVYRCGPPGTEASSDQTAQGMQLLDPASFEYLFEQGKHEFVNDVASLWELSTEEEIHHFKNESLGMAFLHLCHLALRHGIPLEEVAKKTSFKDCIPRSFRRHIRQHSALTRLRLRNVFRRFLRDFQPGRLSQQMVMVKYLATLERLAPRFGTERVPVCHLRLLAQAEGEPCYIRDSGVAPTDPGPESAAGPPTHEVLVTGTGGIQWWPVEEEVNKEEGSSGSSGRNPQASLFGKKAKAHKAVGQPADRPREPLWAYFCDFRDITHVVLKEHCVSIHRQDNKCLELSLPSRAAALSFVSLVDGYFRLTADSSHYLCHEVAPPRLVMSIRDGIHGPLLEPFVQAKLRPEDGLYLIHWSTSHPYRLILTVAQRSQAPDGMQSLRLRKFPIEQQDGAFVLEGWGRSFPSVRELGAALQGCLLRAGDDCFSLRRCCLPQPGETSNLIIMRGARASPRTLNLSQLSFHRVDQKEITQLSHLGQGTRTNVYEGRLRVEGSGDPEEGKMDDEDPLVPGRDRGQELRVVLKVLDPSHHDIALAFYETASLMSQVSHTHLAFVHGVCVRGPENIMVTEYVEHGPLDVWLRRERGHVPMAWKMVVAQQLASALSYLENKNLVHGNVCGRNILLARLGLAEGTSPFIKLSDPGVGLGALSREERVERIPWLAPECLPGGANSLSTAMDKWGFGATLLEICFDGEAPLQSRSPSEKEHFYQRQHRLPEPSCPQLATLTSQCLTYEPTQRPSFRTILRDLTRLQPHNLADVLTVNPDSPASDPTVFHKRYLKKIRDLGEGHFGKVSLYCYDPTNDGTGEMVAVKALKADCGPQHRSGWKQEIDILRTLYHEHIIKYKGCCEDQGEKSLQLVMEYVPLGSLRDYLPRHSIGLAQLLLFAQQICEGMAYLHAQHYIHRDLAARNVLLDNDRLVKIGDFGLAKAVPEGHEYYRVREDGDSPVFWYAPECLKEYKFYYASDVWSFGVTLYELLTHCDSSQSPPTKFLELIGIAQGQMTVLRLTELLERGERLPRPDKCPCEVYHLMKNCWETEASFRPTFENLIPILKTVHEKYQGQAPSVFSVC
T1 sequence (P23458 849-1154): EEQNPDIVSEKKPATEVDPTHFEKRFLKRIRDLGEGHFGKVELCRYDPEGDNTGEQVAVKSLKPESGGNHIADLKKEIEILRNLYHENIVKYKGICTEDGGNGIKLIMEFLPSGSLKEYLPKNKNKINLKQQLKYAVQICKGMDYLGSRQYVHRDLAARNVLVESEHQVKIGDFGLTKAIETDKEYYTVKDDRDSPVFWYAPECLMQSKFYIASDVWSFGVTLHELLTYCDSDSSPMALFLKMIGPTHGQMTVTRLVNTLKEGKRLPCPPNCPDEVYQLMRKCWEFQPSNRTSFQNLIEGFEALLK

Turning to `O=C(Cc1ccsc1)Nc1ccc2cc1CCc1cccc(c1)Nc1ncc(Cl)c(n1)N2` [Example C32, N-[6-Chloro-2,4,8,22-tetraazatetracyclo[14.3.1.1(3,7).1(9,13)]docosa-1(20),3(22),4,6,9(21),10,12,16,18-nonaen-12-yl]-2-(3-thienyl)acetamide trifluoroacetate], the IC50 worked out at 34 nM in assay [1], 658 nM in assay [2], 44 nM on TYK2 and 20 nM in assay [3].

On to `O=C(Cc1c[nH]cn1)Nc1ccc2cc1CCc1cccc(c1)Nc1ncc(Cl)c(n1)N2` [Example C33, N-[6-Chloro-2,4,8,22-tetraazatetracyclo[14.3.1.1(3,7).1(9,13)]docosa-1(20),3(22),4,6,9(21),10,12,16,18-nonaen-12-yl]-2-(1H-imidazol-4-yl)acetamide bis(trifluoroacetate)], for which the IC50 in assay [1] stood at 17 nM; in assay [2], 733 nM; at TYK2, 217 nM; in assay [3], 35 nM.

For `Cc1[nH]c2ccccc2c1CC(=O)Nc1ccc2cc1CCc1cccc(c1)Nc1ncc(Cl)c(n1)N2` [Example C34, N-[6-Chloro-2,4,8,22-tetraazatetracyclo[14.3.1.1(3,7).1(9,13)]docosa-1(20),3(22),4,6,9(21),10,12,16,18-nonaen-12-yl]-2-(2-methyl-1H-indol-3-yl)acetamide trifluoroacetate], the IC50 in assay [1] amounted to 265 nM; in assay [2], 4000 nM; against TYK2 it was 775 nM; in assay [3], 178 nM.

With `O=C(Cc1csc2ccccc12)Nc1ccc2cc1CCc1cccc(c1)Nc1ncc(Cl)c(n1)N2` [Example C35, 2-(1-Benzothien-3-yl)-N-[6-chloro-2,4,8,22-tetraazatetracyclo[14.3.1.1(3,7).1(9,13)]docosa-1(20),3(22),4,6,9(21),10,12,16,18-nonaen-12-yl]acetamide trifluoroacetate], the IC50 is 232 nM in assay [1], above 10000 nM in assay [2], 549 nM against TYK2 and 203 nM in assay [3].

As to `O=C(Cc1ccco1)Nc1ccc2cc1CCc1cccc(c1)Nc1ncc(Cl)c(n1)N2` [Example C36, N-[6-Chloro-2,4,8,22-tetraazatetracyclo[14.3.1.1(3,7).1(9,13)]docosa-1(20),3(22),4,6,9(21),10,12,16,18-nonaen-12-yl]-2-(2-furyl)acetamide trifluoroacetate], the IC50 in assay [1] stood at 33 nM; in assay [2] it was 663 nM; on TYK2, 103 nM; in assay [3] it was 42 nM.

Take `Cn1cc(CC(=O)Nc2ccc3cc2CCc2cccc(c2)Nc2ncc(Cl)c(n2)N3)c2ccccc21` [Example C37, N-[6-Chloro-2,4,8,22-tetraazatetracyclo[14.3.1.1(3,7).1(9,13)]docosa-1(20),3(22),4,6,9(21),10,12,16,18-nonaen-12-yl]-2-(1-methyl-1H-indol-3-yl)acetamide trifluoroacetate]: the IC50 in assay [1] was 496 nM; in assay [2], 2620 nM; on TYK2, 581 nM; in assay [3], 276 nM.

As to `Cc1nc(CC(=O)Nc2ccc3cc2CCc2cccc(c2)Nc2ncc(Cl)c(n2)N3)cs1` [Example C38, N-[6-Chloro-2,4,8,22-tetraazatetracyclo[14.3.1.1(3,7).1(9,13)]docosa-1(20),3(22),4,6,9(21),10,12,16,18-nonaen-12-yl]-2-(2-methyl-1,3-thiazol-4-yl)acetamide trifluoroacetate], the IC50 in assay [1] was determined as 37 nM; in assay [2] it was 1070 nM; against TYK2, 39 nM; in assay [3], 47 nM.

Regarding `O=C(Cc1cccnc1)Nc1ccc2cc1CCc1cccc(c1)Nc1ncc(Cl)c(n1)N2` [Example C39, N-[6-Chloro-2,4,8,22-tetraazatetracyclo[14.3.1.1(3,7).1(9,13)]docosa-1(20),3(22),4,6,9(21),10,12,16,18-nonaen-12-yl]-2-pyridin-3-ylacetamide bis(trifluoroacetate)], the IC50 was 54 nM in assay [1], 1220 nM in assay [2], 195 nM against TYK2 and 29 nM in assay [3].

Take `O=C(Cc1ccncc1)Nc1ccc2cc1CCc1cccc(c1)Nc1ncc(Cl)c(n1)N2` [Example C40, N-[6-Chloro-2,4,8,22-tetraazatetracyclo[14.3.1.1(3,7).1(9,13)]docosa-1(20),3(22),4,6,9(21),10,12,16,18-nonaen-12-yl]-2-pyridin-4-ylacetamide bis(trifluoroacetate)]: the IC50 in assay [1] stood at 62 nM; in assay [2], 804 nM; on TYK2, 291 nM; in assay [3], 56 nM.

With `O=C(Cc1ccccn1)Nc1ccc2cc1CCc1cccc(c1)Nc1ncc(Cl)c(n1)N2` [Example C41, N-[6-Chloro-2,4,8,22-tetraazatetracyclo[14.3.1.1(3,7).1(9,13)]docosa-1(20),3(22),4,6,9(21),10,12,16,18-nonaen-12-yl]-2-pyridin-2-ylacetamide bis(trifluoroacetate)], the IC50 came to 112 nM in assay [1], 1170 nM in assay [2], 246 nM on TYK2 and 65 nM in assay [3].

For `O=C(Cc1cccs1)Nc1ccc2cc1CCc1cccc(c1)Nc1ncc(Cl)c(n1)N2` [Example C42, N-[6-Chloro-2,4,8,22-tetraazatetracyclo[14.3.1.1(3,7).1(9,13)]docosa-1(20),3(22),4,6,9(21),10,12,16,18-nonaen-12-yl]-2-(2-thienyl)acetamide trifluoroacetate], the IC50 was determined as 37 nM in assay [1], 346 nM in assay [2], 96 nM on TYK2 and 23 nM in assay [3].

As to `Cc1nc(C)c(CC(=O)Nc2ccc3cc2CCc2cccc(c2)Nc2ncc(Cl)c(n2)N3)s1` [Example C43, N-[6-Chloro-2,4,8,22-tetraazatetracyclo[14.3.1.1(3,7).1(9,13)]docosa-1(20),3(22),4,6,9(21),10,12,16,18-nonaen-12-yl]-2-(2,4-dimethyl-1,3-thiazol-5-yl)acetamide trifluoroacetate], the IC50 in assay [1] turned out to be 22 nM; in assay [2], 1140 nM; at TYK2, 88 nM; in assay [3] it was 31 nM.

Take `O=C(Cc1nc2ccccc2[nH]1)Nc1ccc2cc1CCc1cccc(c1)Nc1ncc(Cl)c(n1)N2` [Example C44, 2-(1H-Benzimidazol-2-yl)-N-[6-chloro-2,4,8,22-tetraazatetracyclo[14.3.1.1(3,7).1(9,13)]docosa-1(20),3(22),4,6,9(21),10,12,16,18-nonaen-12-yl]acetamide bis(trifluoroacetate)]: the IC50 in assay [1] stood at 70 nM; in assay [2], 779 nM; at TYK2, 478 nM; in assay [3] it was 53 nM.

As for `O=C(Cc1noc2ccccc12)Nc1ccc2cc1CCc1cccc(c1)Nc1ncc(Cl)c(n1)N2` [Example C45, 2-(1,2-Benzisoxazol-3-yl)-N-[6-chloro-2,4,8,22-tetraazatetracyclo[14.3.1.1(3,7).1(9,13)]docosa-1(20),3(22),4,6,9(21),10,12,16,18-nonaen-12-yl]acetamide trifluoroacetate], the IC50 was 165 nM in assay [1], above 10000 nM in assay [2], 544 nM at TYK2 and 321 nM in assay [3].

The term IC50 denotes the concentration needed to halve the response being measured.
